Like-named read-outs stand apart in the source and are kept apart here.
What was measured:
[1] = tested on: immature HSC fraction of the BM; settings: 200 mg/kg CTX intraperitoneally, day 4
Procedure: In the CIX injury model, either sterile PBS or CTX at final concentration of 200 mg/kg mouse weight was injected intraperitoneally. At day 4 after injection, mice were euthanized and BM was obtained from femurs and tibiae of each mouse (n=5 per group).
Apoptosis was measured by AnnexinV and 7AAD staining as previously described Cheng, T. et al. Nat. Med. 6, 1235-1240 (2000).

PB leucocyte count = assay: 5-fluorouracil (5FU) BM injury model, PB counts; assay type: in vivo, mouse; settings: single 150 mg/kg 5FU intraperitoneally
Procedure: Similar results were obtained when mice were subjected to BM injury using 5-fluorouracil (5FU) (data not shown). In the 5FU injury model, 150 mg/kg mouse weight 5FU was injected intraperitoneally at day 0 PB was obtained through tail vein bleeding for analysis weekly starting day 0 (n=10 per group).
Next, we examined the role of P2Y14 in long-term hematopoietic recovery from BM injury. The mice were subjected to a single injection of 5FU and followed the peripheral blood (PB) leucocyte counts as well as PB granulocyte, B cell and T cell content by flow cytometry.
Med. 6, 1235-1240 (2000).

Structure (SMILES)	immature HSC fraction of the BM (% LKS+, % CD34lo/-LKS+) ([1]; P2Y14-/- mice)	apoptosis in the immature HSC fraction ([1]; P2Y14-/- mice, AnnexinV and 7AAD)	immature HSC fraction of the BM (% LKS+, % CD34lo/-LKS+) ([1]; wildtype mice)	persistence of greater than normal granulocyte (Gr-1+) count rebound (PB leucocyte count; P2Y14-/- mice)	nadir of total PB leucocyte count (PB leucocyte count; both -/- and +/+ mice) [days]	peak of rebound leucocytosis (PB leucocyte count; both -/- and +/+ mice) [days]	return to baseline leucocyte count (PB leucocyte count; both -/- and +/+ mice)
O=P1(N(CCCl)CCCl)NCCCO1 (stereo not shown) [CTX, cyclophosphamide]	loss of enrichment for immature HSC fraction	increased apoptosis	enrichment of immature HSC fraction				
O=c1[nH]cc(F)c(=O)[nH]1 [5FU, 5-fluorouracil]				up to 9 weeks	7	14	3-4 weeks post-injection

Reference: patent US20100034832A1, “METHODS FOR MANIPULATING STEM CELLS” (THE GENERAL HOSPITAL CORPORATION, priority 2006, published 2010)
